{"source": "PubChem BioAssay (NCI)", "assay_in_all_cases": "NCI-60 cell line screen, 48 h", "key": {"SK-MEL-2 melanoma": {"tested_on": "SK-MEL-2 melanoma"}, "OVCAR-5 ovarian": {"tested_on": "OVCAR-5 ovarian"}, "SF-295 CNS": {"tested_on": "SF-295 CNS"}, "786-0 renal": {"tested_on": "786-0 renal"}, "M14 melanoma": {"tested_on": "M14 melanoma"}, "A498 renal": {"tested_on": "A498 renal"}, "T-47D breast": {"tested_on": "T-47D breast"}, "MDA-MB-231 breast": {"tested_on": "MDA-MB-231 breast"}, "MDA-MB-435": {"tested_on": "MDA-MB-435"}, "SK-OV-3 ovarian": {"tested_on": "SK-OV-3 ovarian"}, "LOX IMVI melanoma": {"tested_on": "LOX IMVI melanoma"}, "KM12 colon": {"tested_on": "KM12 colon"}, "A549 NSCLC": {"tested_on": "A549 NSCLC"}, "EKVX NSCLC": {"tested_on": "EKVX NSCLC"}, "OVCAR-4 ovarian": {"tested_on": "OVCAR-4 ovarian"}, "MALME-3M melanoma": {"tested_on": "MALME-3M melanoma"}, "SF-268 CNS": {"tested_on": "SF-268 CNS"}, "PC-3 prostate": {"tested_on": "PC-3 prostate"}, "BT-549 breast": {"tested_on": "BT-549 breast"}, "HCT-116 colon": {"tested_on": "HCT-116 colon"}, "NCI-H522 lung": {"tested_on": "NCI-H522 lung"}, "SNB-19 CNS": {"tested_on": "SNB-19 CNS"}, "SN12C renal": {"tested_on": "SN12C renal"}, "NCI-H226 lung": {"tested_on": "NCI-H226 lung"}, "U251 CNS": {"tested_on": "U251 CNS"}, "IGROV1 ovarian": {"tested_on": "IGROV1 ovarian"}, "TK-10 renal": {"tested_on": "TK-10 renal"}, "SW-620 colon": {"tested_on": "SW-620 colon"}, "CAKI-1 renal": {"tested_on": "CAKI-1 renal"}}, "note": "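Briefly, cells in 96-well plates were exposed to five compound concentrations for 48 h, and endpoints were estimated by linear interpolation. Here, GI50 denotes the concentration required for 50% inhibition of growth. The concentration for full growth arrest is given as TGI.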"}
{"smiles": "O=C(/C=C/c1ccccc1Cl)Nc1ncc(Cc2cc(Cl)ccc2Cl)s1", "values": [{"measurement": "GI50", "setting": "SK-MEL-2 melanoma", "result": 3.01, "unit": "µM"}, {"measurement": "TGI", "setting": "SK-MEL-2 melanoma", "result": "> 100", "unit": "µM"}, {"measurement": "GI50", "setting": "OVCAR-5 ovarian", "result": 2.36, "unit": "µM"}, {"measurement": "TGI", "setting": "OVCAR-5 ovarian", "result": "> 100", "unit": "µM"}, {"measurement": "GI50", "setting": "SF-295 CNS", "result": 2.34, "unit": "µM"}, {"measurement": "TGI", "setting": "SF-295 CNS", "result": 71.2, "unit": "µM"}, {"measurement": "GI50", "setting": "786-0 renal", "result": 5.16, "unit": "µM"}, {"measurement": "TGI", "setting": "786-0 renal", "result": "> 100", "unit": "µM"}, {"measurement": "GI50", "setting": "M14 melanoma", "result": 2.04, "unit": "µM"}, {"measurement": "TGI", "setting": "M14 melanoma", "result": "> 100", "unit": "µM"}, {"measurement": "GI50", "setting": "A498 renal", "result": 0.975, "unit": "µM"}, {"measurement": "GI50", "setting": "T-47D breast", "result": 6.72, "unit": "µM"}, {"measurement": "TGI", "setting": "T-47D breast", "result": "> 100", "unit": "µM"}, {"measurement": "GI50", "setting": "MDA-MB-231 breast", "result": 2.66, "unit": "µM"}, {"measurement": "TGI", "setting": "MDA-MB-231 breast", "result": "> 100", "unit": "µM"}, {"measurement": "GI50", "setting": "MDA-MB-435", "result": 0.263, "unit": "µM"}, {"measurement": "TGI", "setting": "MDA-MB-435", "result": 0.79, "unit": "µM"}, {"measurement": "GI50", "setting": "SK-OV-3 ovarian", "result": 7.39, "unit": "µM"}, {"measurement": "TGI", "setting": "SK-OV-3 ovarian", "result": "> 100", "unit": "µM"}, {"measurement": "GI50", "setting": "LOX IMVI melanoma", "result": 1.85, "unit": "µM"}, {"measurement": "TGI", "setting": "LOX IMVI melanoma", "result": "> 100", "unit": "µM"}, {"measurement": "GI50", "setting": "KM12 colon", "result": 1.21, "unit": "µM"}, {"measurement": "TGI", "setting": "KM12 colon", "result": "> 100", "unit": "µM"}, {"measurement": "GI50", "setting": "A549 NSCLC", "result": 2.09, "unit": "µM"}, {"measurement": "TGI", "setting": "A549 NSCLC", "result": "> 100", "unit": "µM"}, {"measurement": "GI50", "setting": "EKVX NSCLC", "result": 2.4, "unit": "µM"}, {"measurement": "TGI", "setting": "EKVX NSCLC", "result": "> 100", "unit": "µM"}, {"measurement": "GI50", "setting": "OVCAR-4 ovarian", "result": 21.3, "unit": "µM"}, {"measurement": "TGI", "setting": "OVCAR-4 ovarian", "result": "> 100", "unit": "µM"}, {"measurement": "GI50", "setting": "MALME-3M melanoma", "result": 4.54, "unit": "µM"}, {"measurement": "TGI", "setting": "MALME-3M melanoma", "result": "> 100", "unit": "µM"}, {"measurement": "GI50", "setting": "SF-268 CNS", "result": 12.5, "unit": "µM"}, {"measurement": "TGI", "setting": "SF-268 CNS", "result": "> 100", "unit": "µM"}, {"measurement": "GI50", "setting": "PC-3 prostate", "result": 3.86, "unit": "µM"}, {"measurement": "TGI", "setting": "PC-3 prostate", "result": "> 100", "unit": "µM"}, {"measurement": "GI50", "setting": "BT-549 breast", "result": 1.15, "unit": "µM"}, {"measurement": "TGI", "setting": "BT-549 breast", "result": 8.4, "unit": "µM"}, {"measurement": "GI50", "setting": "HCT-116 colon", "result": 0.939, "unit": "µM"}, {"measurement": "TGI", "setting": "HCT-116 colon", "result": "> 100", "unit": "µM"}, {"measurement": "GI50", "setting": "NCI-H522 lung", "result": 0.7, "unit": "µM"}, {"measurement": "TGI", "setting": "NCI-H522 lung", "result": 2.56, "unit": "µM"}, {"measurement": "GI50", "setting": "SNB-19 CNS", "result": 4.23, "unit": "µM"}, {"measurement": "TGI", "setting": "SNB-19 CNS", "result": "> 100", "unit": "µM"}, {"measurement": "GI50", "setting": "SN12C renal", "result": 1.95, "unit": "µM"}, {"measurement": "TGI", "setting": "SN12C renal", "result": "> 100", "unit": "µM"}, {"measurement": "GI50", "setting": "NCI-H226 lung", "result": 9.17, "unit": "µM"}, {"measurement": "TGI", "setting": "NCI-H226 lung", "result": "> 100", "unit": "µM"}, {"measurement": "GI50", "setting": "U251 CNS", "result": 2.9, "unit": "µM"}, {"measurement": "TGI", "setting": "U251 CNS", "result": "> 100", "unit": "µM"}, {"measurement": "GI50", "setting": "IGROV1 ovarian", "result": 1.31, "unit": "µM"}, {"measurement": "TGI", "setting": "IGROV1 ovarian", "result": "> 100", "unit": "µM"}, {"measurement": "GI50", "setting": "TK-10 renal", "result": 7.13, "unit": "µM"}, {"measurement": "TGI", "setting": "TK-10 renal", "result": "> 100", "unit": "µM"}, {"measurement": "GI50", "setting": "SW-620 colon", "result": 1.25, "unit": "µM"}, {"measurement": "TGI", "setting": "SW-620 colon", "result": "> 100", "unit": "µM"}, {"measurement": "GI50", "setting": "CAKI-1 renal", "result": 4.23, "unit": "µM"}, {"measurement": "TGI", "setting": "CAKI-1 renal", "result": "> 100", "unit": "µM"}]}
